In PMC2606621 (Journal of neurochemistry, 2008):
Where two headings read alike, the source gives them in different places.

Key:
CB1 receptor = details: ref Hill et al., cited from earlier work
cannabinoid CB1 receptor = cannabinoid CB1 receptor (Rattus norvegicus, UniProt P20272); experiment: CB1 receptor binding assay; type: in vivo; details: for effect on Bmax of the CB1 receptor: imipramine alone
[1] = tested on: endocannabinoids AEA and 2-AG; experiment: Plasma endocannabinoid content; type: in vivo, rat; details: imipramine 10 mg/kg, 21 days; p > 0.05
[2] = target: T1, fatty acid amide hydrolase (FAAH) (Rattus norvegicus, UniProt P97612); experiment: Fatty acid amide hydrolase activity assay; type: in vivo; details: for effect on Vmax of FAAH: combination of CUS and imipramine, p < 0.05; for Km: read-out: binding affinity (Km) of fatty acid amide hydrolase for anandamide
T1 sequence (P97612 1-579): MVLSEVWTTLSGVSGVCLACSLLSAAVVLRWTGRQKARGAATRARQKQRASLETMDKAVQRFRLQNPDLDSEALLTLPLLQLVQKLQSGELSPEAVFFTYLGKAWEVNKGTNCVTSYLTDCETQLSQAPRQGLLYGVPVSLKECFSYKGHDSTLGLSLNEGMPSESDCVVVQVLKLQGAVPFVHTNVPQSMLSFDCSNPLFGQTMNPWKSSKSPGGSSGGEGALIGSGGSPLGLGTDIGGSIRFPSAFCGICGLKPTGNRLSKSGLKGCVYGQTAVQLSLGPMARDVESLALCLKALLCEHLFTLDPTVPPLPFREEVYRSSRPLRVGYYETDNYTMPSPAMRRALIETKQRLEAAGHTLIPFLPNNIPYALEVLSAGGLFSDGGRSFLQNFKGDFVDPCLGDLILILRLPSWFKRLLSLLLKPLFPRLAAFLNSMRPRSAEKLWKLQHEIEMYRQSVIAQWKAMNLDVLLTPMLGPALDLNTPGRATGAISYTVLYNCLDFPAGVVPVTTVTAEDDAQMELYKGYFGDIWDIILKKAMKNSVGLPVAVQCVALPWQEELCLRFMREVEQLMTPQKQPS

[3] = tested on: endocannabinoids AEA and 2-AG; experiment: Brain tissue endocannabinoid content; details: imipramine alone; any brain region examined

cannabinoid CB1 receptor, sequence (P20272 whole entry): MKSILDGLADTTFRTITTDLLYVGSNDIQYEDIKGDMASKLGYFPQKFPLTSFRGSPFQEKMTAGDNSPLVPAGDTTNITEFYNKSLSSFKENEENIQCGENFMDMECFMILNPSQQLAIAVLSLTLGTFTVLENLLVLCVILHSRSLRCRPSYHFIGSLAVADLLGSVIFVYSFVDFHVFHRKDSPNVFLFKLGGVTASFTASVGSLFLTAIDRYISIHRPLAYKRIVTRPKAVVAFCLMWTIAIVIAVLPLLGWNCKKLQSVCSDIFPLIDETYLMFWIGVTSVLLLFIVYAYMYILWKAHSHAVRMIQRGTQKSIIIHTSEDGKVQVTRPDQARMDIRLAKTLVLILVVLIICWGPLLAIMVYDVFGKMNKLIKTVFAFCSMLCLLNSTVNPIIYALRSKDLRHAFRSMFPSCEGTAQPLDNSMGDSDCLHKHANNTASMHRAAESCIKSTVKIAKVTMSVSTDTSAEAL

C[C@]12C[C@H](O)[C@H]3[C@@H](CCC4=CC(=O)CC[C@@]43C)[C@@H]1CC[C@@H]2C(=O)CO [corticosterone]
effect on CB1 receptor binding and protein expression (CB1 receptor; hippocampus, 21 days administration, absence of stress, 2008a): comparable reduction

CNCCCN1c2ccccc2CCc2ccccc21 [desipramine]
effect on CB1 receptor binding (CB1 receptor; hippocampus of unstressed rats, 2006): up-regulation
effect on CB1 receptor agonist binding site density (CB1 receptor; hypothalamus, unstressed rats, chronic treatment, 2006): increases

CN(C)CCCN1c2ccccc2CCc2ccccc21 [imipramine]
effect on Bmax of the CB1 receptor (increase) (cannabinoid CB1 receptor; amygdala, CUS and imipramine combined, p > 0.05): did not occur
effect on Bmax of the CB1 receptor (cannabinoid CB1 receptor; amygdala, p < 0.05): increase
effect on CB1 receptor agonist binding site density (Bmax) (cannabinoid CB1 receptor; hippocampus, imipramine 10 mg/kg, 21 days (ANOVA main effect)): unaffected
effect on Bmax for [3H]CP55940 binding to the CB1 receptor (cannabinoid CB1 receptor; hypothalamus, CUS and imipramine together vs control, p > 0.05): no significant difference
effect on CB1 receptor binding site density (Bmax) (cannabinoid CB1 receptor; midbrain, imipramine 10 mg/kg, 21 days, p < 0.05): significant reduction
effect on agonist binding site density (Bmax) of the CB1 receptor (cannabinoid CB1 receptor; prefrontal cortex, imipramine 10 mg/kg, 21 days (ANOVA main effect)): no effect
effect on Bmax of the CB1 receptor (reduction) (cannabinoid CB1 receptor; ventral striatum, CUS and imipramine concurrently, p > 0.05): not seen
effect on Bmax of the CB1 receptor (cannabinoid CB1 receptor; ventral striatum, p < 0.01): significant reductions
effect on plasma 2-AG content [1]: unaffected
effect on plasma AEA content [1]: neither an effect
effect on maximal hydrolytic activity (Vmax) of FAAH ([2]; imipramine alone, any brain region examined): no effects
effect on Vmax of FAAH ([2]; midbrain): increased
Km ([2]; Amygdala, CON/IMI (no stress, imipramine 10 mg/kg, 21 days)): 0.95 nM
Km ([2]; Amygdala, CUS/IMI (21 days CUS + imipramine 10 mg/kg)): 0.53 nM
Km ([2]; Hippocampus, CON/IMI (no stress, imipramine 10 mg/kg, 21 days)): 0.8 nM
Km ([2]; Hippocampus, CUS/IMI (21 days CUS + imipramine 10 mg/kg)): 0.71 nM
Km ([2]; Hypothalamus, CON/IMI (no stress, imipramine 10 mg/kg, 21 days)): 0.44 nM
Km ([2]; Hypothalamus, CUS/IMI (21 days CUS + imipramine 10 mg/kg)): 0.55 nM
Km ([2]; Midbrain, CON/IMI (no stress, imipramine 10 mg/kg, 21 days)): 0.6 nM
Km ([2]; Midbrain, CUS/IMI (21 days CUS + imipramine 10 mg/kg)): 0.61 nM
Km ([2]; Prefrontal Cortex, CON/IMI (no stress, imipramine 10 mg/kg, 21 days)): 0.65 nM
Km ([2]; Prefrontal Cortex, CUS/IMI (21 days CUS + imipramine 10 mg/kg)): 0.46 nM
Km ([2]; Ventral Striatum, CON/IMI (no stress, imipramine 10 mg/kg, 21 days)): 0.37 nM
Km ([2]; Ventral Striatum, CUS/IMI (21 days CUS + imipramine 10 mg/kg)): 0.69 nM
effect on Vmax of FAAH ([2]; ventral striatum): increased
effect on tissue AEA content [3]: no effect
